The source made the active and inactive calls. No cut-off for these calls is given here.
Columns and labels:
HCT-116 [1] = test: Induction of apoptosis in human HCT116 cells assessed as caspase activation at 5 uM after 36 hrs by CaspACEFITC-VAD-FMK staining based flow cytometry (reference value: 7.72%); assay type: functional
HCT-116 [2] = test: Induction of apoptosis in human HCT116 cells assessed as late apoptotic cells at 5 uM after 24 hrs by Annexin V-FITC/propidium iodide staining based flow cytometry in presence of NAC (reference value: 3.73%); assay type: functional
HCT-116 [3] = test: Induction of apoptosis in human HCT116 cells assessed as necrotic cells at 5 uM after 24 hrs by Annexin V-FITC/propidium iodide staining based flow cytometry in presence of DTT (reference value: 0.44%); assay type: functional
HCT-116 [4] = test: Induction of apoptosis in Bax deficient human HCT116 cells assessed as early apoptotic cells at 15 uM after 24 hrs by Annexin V-FITC/propidium iodide staining based flow cytometry in presence of NAC (reference value: 0.85%); assay type: functional
HCT-116 [5] = test: Induction of apoptosis in human HCT116 cells assessed as changes in Bax expression at 5 uM after 6 to 24 hrs by Western blot analysis; assay type: functional, cell-based
HCT-116 [6] = test: Induction of apoptosis in human HCT116 cells assessed as decrease in Bcl-2 expression at 5 uM after 6 to 24 hrs by Western blot analysis; assay type: functional, cell-based
HCT-116 [7] = test: Induction of apoptosis in ATG5 knockdown human HCT116 cells assessed as early apoptotic cells at 5 uM after 24 hrs by Annexin V-FITC/propidium iodide staining based flow cytometry (reference value: 1.13%); assay type: functional
HCT-116 [8] = test: Induction of autophagy in human HCT116 cells assessed as ATG5-ATG12 complex at 5 uM after 4 to 12 hrs by Western blot analysis; assay type: functional, cell-based
HCT-116 [9] = test: Induction of apoptosis in human HCT116 cells assessed as caspase activation at 5 uM after 12 hrs by CaspACEFITC-VAD-FMK staining based flow cytometry (reference value: 7.72%); assay type: functional
HCT-116 [10] = test: Induction of apoptosis in human HCT116 cells assessed as caspase activation at 5 uM by CaspACEFITC-VAD-FMK staining based flow cytometry; assay type: functional, cell-based; conditions: TDE = time-dependent effect
HCT-116 [11] = test: Induction of apoptosis in human HCT116 cells assessed as increase in total cellular ROS level after 6 hrs by H2DCFDA staining based flow cytometry; assay type: functional, cell-based
HCT-116 [12] = test: Induction of apoptosis in human HCT116 cells assessed as late apoptotic cells at 2.5 uM after 24 hrs by Annexin V-FITC/propidium iodide staining based flow cytometry (reference value: 4.54%); assay type: functional
HCT-116 [13] = test: Induction of apoptosis in human HCT116 cells assessed as early apoptotic cells at 5 uM after 24 hrs by Annexin V-FITC/propidium iodide staining based flow cytometry (reference value: 1.06 to 2.2%); assay type: functional
HCT-116 [14] = test: Induction of apoptosis in human HCT116 cells assessed as caspase activation at 5 uM after 24 hrs by CaspACEFITC-VAD-FMK staining based flow cytometry (reference value: 7.72%); assay type: functional
HCT-116 [15] = test: Induction of apoptosis in human HCT116 cells assessed as increase in BimL expression at 5 uM after 6 to 24 hrs by Western blot analysis; assay type: functional, cell-based
HCT-116 [16] = test: Induction of apoptosis in human HCT116 cells assessed as depolarization of mitochondrial inner transmembrane potential after 24 hrs by TMRE staining based flow cytometry; assay type: functional, cell-based
HCT-116 [17] = test: Induction of apoptosis in ATG5 knockdown human HCT116 cells assessed as late apoptotic cells at 5 uM after 24 hrs by Annexin V-FITC/propidium iodide staining based flow cytometry (reference value: 2.01%); assay type: functional
HCT-116 [18] = test: Induction of apoptosis in human HCT116 cells assessed as late apoptotic cells at 7.5 uM after 24 hrs by Annexin V-FITC/propidium iodide staining based flow cytometry (reference value: 4.54%); assay type: functional
HCT-116 [19] = test: Induction of autophagy in human HCT116 cells assessed as increase in LC3-2 level at 5 uM by Western blot analysis; assay type: functional, cell-based
HCT-116 [20] = test: Induction of apoptosis in human HCT116 cells assessed as viable cells at 5 uM after 24 hrs by Annexin V-FITC/propidium iodide staining based flow cytometry (reference value: 93.64%); assay type: functional; conditions: HCT-116, 24 h, read-out: Activity
Mus musculus [21] = test: Hepatotoxicity in immune deficient nude BALB/c mouse xenografted with Bax deficient human HCT116 cells assessed as changes in alanine transaminase level in serum at 5 and 10 mg/kg, ip administered every other day for 2 weeks measured during compound dosing; assay type: toxicity, organism-based, HCT-116; conditions: in vivo, 336 h
HCT-116 [22] = test: Induction of apoptosis in human HCT116 cells assessed as early apoptotic cells at 10 uM after 12 hrs by Annexin V-FITC/propidium iodide staining based flow cytometry (reference value: 1.13%); assay type: functional
HCT-116 [23] = test: Induction of apoptosis in Bax deficient human HCT116 cells assessed as late apoptotic cells at 20 uM after 24 hrs by Annexin V-FITC/propidium iodide staining based flow cytometry (reference value: 1.5%); assay type: functional
Mus musculus [24] = test: Hepatotoxicity in immune deficient nude BALB/c mouse xenografted with human HCT116 cells assessed as changes in alanine transaminase level in serum at 5 and 10 mg/kg, ip administered every other day for 2 weeks measured during compound dosing; assay type: toxicity, organism-based, HCT-116; conditions: in vivo, 336 h
HCT-116 [25] = test: Induction of apoptosis in human HCT116 cells assessed as late apoptotic cells at 10 uM after 24 hrs by Annexin V-FITC/propidium iodide staining based flow cytometry (reference value: 4.54%); assay type: functional
HCT-116 [26] = test: Induction of apoptosis in human HCT116 cells assessed as increase in BimS expression at 5 uM after 6 to 24 hrs by Western blot analysis; assay type: functional, cell-based
[27] = Cytotoxicity against human HCT116 cells assessed as reduction in cell viability after 24 hrs by MTT assay; assay type: functional, cell-based; conditions: HCT-116, 24 h
HCT-116 [28] = test: Induction of apoptosis in Bax deficient human HCT116 cells assessed as early apoptotic cells at 15 uM after 24 hrs by Annexin V-FITC/propidium iodide staining based flow cytometry (reference value: 0.85 to 1.13%); assay type: functional
HCT-116 [29] = test: Induction of apoptosis in human HCT116 cells assessed as early apoptotic cells at 5 uM after 24 hrs by Annexin V-FITC/propidium iodide staining based flow cytometry in presence of DTT (reference value: 2.2%); assay type: functional
HCT-116 [30] = test: Induction of apoptosis in human HCT116 cells assessed as ATG5 cleavage at 5 uM after 4 to 12 hrs by Western blot analysis; assay type: functional, cell-based
HCT-116 [31] = test: Induction of apoptosis in human HCT116 cells assessed as necrotic cells at 5 uM after 24 hrs by Annexin V-FITC/propidium iodide staining based flow cytometry (reference value: 0.44%); assay type: functional
SW480 = test: Induction of apoptosis in human SW480 cells assessed as apoptotic cells at 10 uM after 24 hrs by Annexin V-FITC/propidium iodide staining based flow cytometry; assay type: functional, cell-based
HCT-116 [32] = test: Induction of apoptosis in human HCT116 cells assessed as apoptotic cells at 5 uM after 24 hrs by Annexin V-FITC/propidium iodide staining based flow cytometry in presence of caspase inhibitor Z-VAD-FMK; assay type: functional

For `CO[C@@H]1C(C=O)=CC[C@@H]2C3=C(C(C)C)CC[C@]3(C)CC[C@@]2(C)[C@H]1O`, which Activity (HCT-116 [1]) is on record?
Its Activity is 93.96%.

And the Activity (HCT-116 [2])?
Its Activity is 6.46%.

What about the Activity (HCT-116 [3]) of the same compound?
Its Activity is 0.33%.

What about the Activity (HCT-116 [4]) of the same compound?
The Activity was 1.42%.

What about the Activity (HCT-116 [5]) of the same compound?
The Activity was “inactive”.

And the Activity (HCT-116 [6])?
Its Activity is “Active”.

And the Activity (HCT-116 [7])?
The Activity was 2.36%.

What about the Activity (HCT-116 [8]) of the same compound?
The Activity was “Active”.

And the Activity (HCT-116 [9])?
Its Activity is 66.85%.

What about the Activity (HCT-116 [10]) of the same compound?
The Activity was “tde”.

What about the Activity (HCT-116 [11]) of the same compound?
The Activity was “Dose-dependent effect”.

And the Activity (HCT-116 [12])?
Its Activity is 7.54%.

And the Activity (HCT-116 [13])?
Its Activity is 24.72%.

And the Activity (HCT-116 [14])?
The Activity was 70.08%.

What about the Activity (HCT-116 [15]) of the same compound?
The Activity was “Active”.

And the Activity (HCT-116 [16])?
The Activity was “Dose-dependent effect”.

And the Activity (HCT-116 [17])?
Its Activity is 1.85%.

What about the Activity (HCT-116 [18]) of the same compound?
The Activity was 20.8%.

And the Activity (HCT-116 [19])?
Its Activity is “Active”.

And the viability at 5 µM (HCT-116 [20])?
The viability at 5 µM was 56.3%.

What about the Activity (Mus musculus [21]) of the same compound?
Its Activity is “Non-toxic”.

What about the Activity (HCT-116 [22]) of the same compound?
The Activity was 30.19%.

What about the Activity (HCT-116 [23]) of the same compound?
The Activity was 32.25%.

And the Activity (Mus musculus [24])?
Its Activity is “Non-toxic”.

And the Activity (HCT-116 [25])?
Its Activity is 22.57%.

What about the Activity (HCT-116 [26]) of the same compound?
Its Activity is “Active”.

What about the IC50 [27] of the same compound?
The IC50 was 9.16 µM.

And the Activity (HCT-116 [28])?
Its Activity is 47.04%.

What about the Activity (HCT-116 [29]) of the same compound?
The Activity was 5.58%.

And the Activity (HCT-116 [30])?
The Activity was “Active”.

What about the Activity (HCT-116 [31]) of the same compound?
Its Activity is 5.93%.

And the Activity (SW480)?
Its Activity is “Active”.

What about the Activity (HCT-116 [32]) of the same compound?
Its Activity is 28.81%.

Reference: ChEMBL document CHEMBL3769391, “Identification of a new cyathane diterpene that induces mitochondrial and autophagy-dependent apoptosis and shows a potent in vivo anti-colorectal cancer activity” (Eur J Med Chem, 2016)
